Source: patent US20250197403A1, “HETEROARYL COMPOUNDS FOR TREATMENT OF COMPLEMENT FACTOR D MEDIATED DISORDERS” (Achillion Pharmaceuticals, Inc., priority 2020, published 2025)
pIC50: −log10 of the molar value.

Each compound was assayed against Human Factor D (Homo sapiens (Human), UniProt P00746) (assay: Human Factor D Assay). Settings: Human Factor D 80 nM, substrate Z-L-Lys-SBzl, assay according to Example 3.
Sequence of Human Factor D (P00746 26-253): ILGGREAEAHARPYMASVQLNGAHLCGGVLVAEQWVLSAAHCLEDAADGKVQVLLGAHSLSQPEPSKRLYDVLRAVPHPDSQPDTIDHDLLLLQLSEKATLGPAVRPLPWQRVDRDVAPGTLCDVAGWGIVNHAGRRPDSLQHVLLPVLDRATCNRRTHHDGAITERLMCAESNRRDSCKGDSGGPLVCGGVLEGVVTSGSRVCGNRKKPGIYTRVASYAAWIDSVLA
Type: biochemical
Method in brief: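 Serum-purified factor D (80 nM final) preincubated with compound 5 min at room temperature in 50 mM Tris, 1M NaCl, pH 7.5. Z-L-Lys-SBzl substrate and DTNB added at 100 μM each; A405 read every 30 s for 30 min. IC50 from nonlinear regression of reaction rates versus compound concentration.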
For `CC(=O)c1cn(CC(=O)N2[C@H](C(=O)Nc3nc(C(F)(F)F)ccc3C)C[C@@]3(C)C[C@@H]23)c2c(C)c(F)c(-c3cnc4cc(C)nn4c3)cc12` [Compound 49, (1R,3S,5R)-2-(2-(3-acetyl-6-fluoro-7-methyl-5-(2-methylpyrazolo[1,5-a]pyr-imidin-6-yl)-1H-indol-1-yl)acetyl)-5-methyl-N-(3-methyl-6-(trifluorometh-yl)pyridin-2-yl)-2-azabi-cyclo[3.1.0]hexane-3-car-boxamide], the pIC50 was > 6.00. In the case of `CC(=O)c1nn(CC(=O)N(C)[C@@H](C)C(=O)Nc2nc(Br)ccc2C)c2cc3c(cc12)-c1cnc(C)nc1C=CC3` [Compound 110, (S)-2-(2-(11-acetyl-3-methylpyrimido[4′,5′:6,7]cyclohepta[1,2-f]indazol-9(7H)-yl)-N-methylacetamido)-N-(6-bromo-3-methylpyridin-2-yl)propanamide], the pIC50 was > 6.00. For `CC(=O)c1cn(CC(=O)N2C[C@H]3C[C@H]3[C@H]2C(=O)Nc2nc(C(F)(F)F)ccc2Cl)c2c(C)cc(-c3cnc4cc(C)nn4c3)cc12` [Compound 6, (1R,2S,5S)-3-(2-(3-acetyl-7-methyl-5-(2-methylpyr-azolo[1,5-a]pyrimidin-6-yl)-1H-indol-1-yl)acetyl)-N-(3-chloro-6-(trifluoro-methyl)pyridin-2-yl)-3-azabicyclo[3.1.0]hexane-2-carboxamide], the pIC50 was > 6.00. `CC(=O)c1cn(CC(=O)N2[C@H](C(=O)Nc3nc(C(F)(F)F)c(F)cc3C)C[C@@]3(C)C[C@@H]23)c2c(C)cc(-c3ccc4nc(C)nn4c3)cc12` [Compound 19, (1R,3S,5R)-2-(2-(3-acetyl-7-methyl-5-(2-methyl-[1,2,4]triazolo[1,5-a]pyr-idin-6-yl)-1H-indol-1-yl)-acetyl)-N-(5-fluoro-3-methyl-6-(trifluorometh-yl)pyridin-2-yl)-5-methyl-2-azabicyclo[3.1.0]hexane-3-carboxamide] was tested, and the pIC50 was > 6.00. For `CC(=O)c1cn(CC(=O)N2[C@H](C(=O)Nc3nc(C(F)(F)F)c(F)cc3C)C[C@@]3(C)C[C@@H]23)c2c(C)cc(-c3cnc4cc(C)nn4c3)cc12` [Compound 16, (1R,3S,5R)-2-(2-(3-acetyl-7-methyl-5-(2-methylpyr-azolo[1,5-a]pyrimidin-6-yl)-1H-indol-1-yl)acetyl)-N-(5-fluoro-3-methyl-6-(trifluoromethyl)pyridin-2-yl)-5-methyl-2-azabicyclo [3.1.0]hexane-3-carbox-amide], the pIC50 was > 6.00. With `CC(=O)c1cn(CC(=O)N2[C@H](C(=O)Nc3nc(C(F)(F)F)cc(F)c3C)C[C@@]3(C)C[C@@H]23)c2c(C)cc(-c3cnc(C)nc3)cc12` [Compound 54, (1R,3S,5R)-2-(2-(3-acetyl-7-methyl-5-(2-methylpyr-imidin-5-yl)-1H-indol-1-yl)acetyl)-N-(4-fluoro-3-methyl-6-(trifluorometh-yl)pyridin-2-yl)-5-methyl-2-azabicyclo[3.1.0]hexane-3-carboxamide] the pIC50 was > 6.00. With `CC(=O)c1cn(CC(=O)N2[C@H](C(=O)N[C@H](C)C(F)=C(C)C)C[C@@]3(C)C[C@@H]23)c2c(C)nc(-c3cnc(C)nc3)cc12` [Compound 36, (1R,3S,5R)-2-(2-(3-acetyl-7-methyl-5-(2-methylpyr-imidin-5-yl)-1H-pyrrolo [2,3-c]pyridin-1-yl)acetyl)-N-((R)-3-fluoro-4-methyl-pent-3-en-2-yl)-5-methyl-2-azabicyclo[3.1.0]hexane-3-carboxamide] the pIC50 was > 6.00. `CC(=O)c1cn(CC(=O)N2C[C@@](F)(CF)C[C@H]2C(=O)Nc2nc(C(F)(F)F)ccc2C)c2c(C)cc(-c3cnc(C)nc3)cc12` [Compound 61, (2S,4R)-1-(2-(3-acetyl-7-methyl-5-(2-methylpyrim-idin-5-yl)-1H-indol-1-yl)-acetyl)-4-fluoro-4-(fluoro-methyl)-N-(3-methyl-6-(trifluoromethyl)pyridin-2-yl)pyrrolidine-2-carbox-amide] was tested, and the pIC50 was > 6.00. With `CC(=O)c1cn(CC(=O)N2C[C@H]3C[C@H]3[C@H]2C(=O)N[C@@H](C)C(F)=C(C)C)c2c(C)cc(-c3cnc4cc(C)nn4c3)cc12` [Compound 38, (1R,2S,5S)-3-(2-(3-acetyl-7-methyl-5-(2-methylpyr-azolo[1,5-a]pyrimidin-6-yl)-1H-indol-1-yl)acetyl)-N-((S)-3-fluoro-4-methyl-pent-3-en-2-yl)-3-azabi-cyclo[3.1.0]hexane-2-car-boxamide] the pIC50 was > 6.00. `CC(=O)c1cn(CC(=O)N2[C@H](C(=O)Nc3nc(C(F)(F)F)ncc3C)C[C@@]3(C)C[C@@H]23)c2c(C)cc(-c3cnc(C)nc3)cc12` [Compound 57, (1R,3S,5R)-2-(2-(3-acetyl-7-methyl-5-(2-methylpyr-imidin-5-yl)-1H-indol-1-yl)acetyl)-5-methyl-N-(5-methyl-2-(trifluorometh-yl)pyrimidin-4-yl)-2-aza-bicyclo[3.1.0]hexane-3-carboxamide] was tested, and the pIC50 was > 6.00. `CC(=O)c1cn(CC(=O)N2[C@H](C(=O)Nc3nc(C(F)(F)F)ccc3C#N)C[C@@]3(C)C[C@@H]23)c2c(C)cc(-c3cnc4cc(C)nn4c3)cc12` [Compound 14, (1R,3S,5R)-2-(2-(3-acetyl-7-methyl-5-(2-methylpyr-azolo[1,5-a]pyrimidin-6-yl)-1H-indol-1-yl)acetyl)-N-(3-cyano-6-(trifluoro-methyl)pyridin-2-yl)-5-methyl-2-azabicyclo[3.1.0] hexane-3-carboxamide] was tested, and the pIC50 was > 6.00. With `CC(=O)c1cn(CC(=O)N2[C@H](C(=O)Nc3nc(C(F)(F)F)ccc3Cl)C[C@@]3(C)C[C@@H]23)c2c(C)nc(-c3cnc4cc(C)nn4c3)cc12` [Compound 24, (1R,3S,5R)-2-(2-(3-acetyl-7-methyl-5-(2-methylpyr-azolo[1,5-a]pyrimidin-6-yl)-1H-pyrrolo[2,3-c]pyr-idin-1-yl)acetyl)-N-(3-chloro-6-(trifluoromethyl)-pyridin-2-yl)-5-methyl-2-azabicyclo[3.1.0]hexane-3-carboxamide] the pIC50 was > 6.00. With `CC(=O)c1cn(CC(=O)N2[C@H](C(=O)Nc3nc(Br)ccc3Cl)C[C@@]3(C)C[C@@H]23)c2c(C)cc(-c3cnc4cc(C)nn4c3)cc12` [Compound 47, (1R,3S,5R)-2-(2-(3-acetyl-7-methyl-5-(2-methylpyr-azolo[1,5-a]pyrimidin-6-yl)-1H-indol-1-yl)acetyl)-N-(6-bromo-3-chloropyr-idin-2-yl)-5-methyl-2-aza-bicyclo[3.1.0]hexane-3-carboxamide] the pIC50 was > 6.00. `CC(=O)c1cn(CC(=O)N2C[C@@](F)(CF)C[C@H]2C(=O)Nc2nc(C(F)(F)F)ccc2C)c2c(C)cc(-c3cnc4cc(C)nn4c3)cc12` [Compound 10, (2S,4R)-1-(2-(3-acetyl-7-methyl-5-(2-methylpyr-azolo[1,5-a]pyrimidin-6-yl)-1H-indol-1-yl)acetyl)-4-fluoro-4-(fluoromethyl)-N-(3-methyl-6-(trifluoro-methyl)pyridin-2-yl)pyr-rolidine-2-carboxamide] was tested, and the pIC50 was > 6.00. For `CC(=O)c1cn(CC(=O)N2C[C@H]3C[C@H]3[C@H]2C(=O)Nc2nc(Br)ccc2C)c2c(C)cc(-c3cnc4cc(C)nn4c3)cc12` [Compound 63, (1R,2S,5S)-3-(2-(3-acetyl-7-methyl-5-(2-methylpyr-azolo[1,5-a]pyrimidin-6-yl)-1H-indol-1-yl)acetyl)-N-(6-bromo-3-methylpyr-idin-2-yl)-3-azabicyclo [3.1.0]hexane-2-carbox-amide], the pIC50 was > 6.00. With `CC(=O)c1cn(CC(=O)N2[C@H](C(=O)Nc3nc(C(F)(F)F)ccc3C)C[C@@]3(C)C[C@@H]23)c2c(CO)cc(-c3cnc4cc(C)nn4c3)cc12` [Compound 43, (1R,3S,5R)-2-(2-(3-acetyl-7-(hydroxymethyl)-5-(2-methylpyrazolo[1,5-a]pyr-imidin-6-yl)-1H-indol-1-yl)acetyl)-5-methyl-N-(3-methyl-6-(trifluorometh-yl)pyridin-2-yl)-2-azabi-cyclo[3.1.0]hexane-3-car-boxamide] the pIC50 was > 6.00. In the case of `CC(=O)c1cn(CC(=O)N2C[C@@](F)(CF)C[C@H]2C(=O)Nc2nc(C(F)(F)F)ccc2C)c2c(C)nc(-c3cnc4cc(C)nn4c3)cc12` [Compound 25, (2S,4R)-1-(2-(3-acetyl-7-methyl-5-(2-methylpyr-azolo[1,5-a]pyrimidin-6-yl)-1H-pyrrolo[2,3-c]pyr-idin-1-yl)acetyl)-4-fluoro-4-(fluoromethyl)-N-(3-methyl-6-(trifluorometh-yl)pyridin-2-yl)pyrroli-dine-2-carboxamide], the pIC50 was > 6.00. With `CC(=O)c1cn(CC(=O)N2[C@H](C(=O)Nc3nc(C(F)(F)F)ccc3C)C[C@@]3(C)C[C@@H]23)c2c(CF)cc(-c3cnc4cc(C)nn4c3)cc12` [Compound 46, (1R,3S,5R)-2-(2-(3-acetyl-7-(fluoromethyl)-5-(2-methylpyrazolo[1,5-a]pyr-imidin-6-yl)-1H-indol-1-yl)acetyl)-5-methyl-N-(3-methyl-6-(trifluorometh-yl)pyridin-2-yl)-2-azabi-cyclo[3.1.0]hexane-3-car-boxamide] the pIC50 was > 6.00. For `COCc1ccc(C(F)(F)F)nc1NC(=O)[C@@H]1C[C@@]2(C)C[C@H]2N1C(=O)Cn1cc(C(C)=O)c2cc(-c3cnc4cc(C)nn4c3)c(F)c(C)c21` [Compound 2, (1R,3S,5R)-2-(2-(3-acetyl-6-fluoro-7-methyl-5-(2-methylpyrazolo[1,5-a]-pyrimidin-6-yl)-1H-indol-1-yl)acetyl)-N-(3-(meth-oxymethyl)-6-(trifluoro-methyl)pyridin-2-yl)-5-methyl-2-azabicyclo[3.1.0] hexane-3-carboxamide], the pIC50 was > 6.00. For `CC(=O)c1cn(CC(=O)N2[C@H](C(=O)Nc3nc(C(F)(F)F)ccc3C)C[C@@]3(C)C[C@@H]23)c2c(C)cc(-c3cnc4cc(C#N)nn4c3)cc12` [Compound 13, (1R,3S,5R)-2-(2-(3-acetyl-5-(2-cyanopyrazolo[1,5-a]pyrimidin-6-yl)-7-methyl-1H-indol-1-yl)acetyl)-5-methyl-N-(3-methyl-6-(trifluoromethyl)pyridin-2-yl)-2-azabicyclo[3.1.0] hexane-3-carboxamide], the pIC50 was > 6.00.
